Common to all, as to experiment: Ray2010 Assay 74
In assay [1] the target is 5-hydroxytryptamine receptor 1B (Homo sapiens, UniProt P28222). An excerpt:
(§1) Table S2 shows raw Ki data for the current study combined with data collected from the literature for the ten additional compounds.

For assay [2], the target named is 5-hydroxytryptamine receptor 1D (Homo sapiens, UniProt P28221).
Source text: as §1

Assay [3] addresses 5-hydroxytryptamine receptor 2B (Homo sapiens, UniProt P41595).
Source text: as §1

Assay [4] concerns the target T1, 5-hydroxytryptamine receptor 3A (Homo sapiens, UniProt P46098).
T1 sequence (P46098 whole entry): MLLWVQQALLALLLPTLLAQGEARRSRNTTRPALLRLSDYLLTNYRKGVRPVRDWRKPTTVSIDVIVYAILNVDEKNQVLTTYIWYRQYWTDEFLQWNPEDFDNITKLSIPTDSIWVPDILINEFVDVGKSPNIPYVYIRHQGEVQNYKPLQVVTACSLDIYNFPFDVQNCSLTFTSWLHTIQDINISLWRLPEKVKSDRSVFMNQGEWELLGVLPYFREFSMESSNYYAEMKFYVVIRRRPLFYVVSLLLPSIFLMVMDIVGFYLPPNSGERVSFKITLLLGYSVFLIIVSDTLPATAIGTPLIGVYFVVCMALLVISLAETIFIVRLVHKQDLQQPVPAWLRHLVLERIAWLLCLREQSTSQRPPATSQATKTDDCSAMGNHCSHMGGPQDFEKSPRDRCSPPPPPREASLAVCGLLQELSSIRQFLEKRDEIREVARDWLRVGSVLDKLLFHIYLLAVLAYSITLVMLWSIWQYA
Source text: as §1

In assay [5] the target is 5-hydroxytryptamine receptor 5A (Homo sapiens, UniProt P47898).
5-hydroxytryptamine receptor 5A, sequence (P47898 whole entry): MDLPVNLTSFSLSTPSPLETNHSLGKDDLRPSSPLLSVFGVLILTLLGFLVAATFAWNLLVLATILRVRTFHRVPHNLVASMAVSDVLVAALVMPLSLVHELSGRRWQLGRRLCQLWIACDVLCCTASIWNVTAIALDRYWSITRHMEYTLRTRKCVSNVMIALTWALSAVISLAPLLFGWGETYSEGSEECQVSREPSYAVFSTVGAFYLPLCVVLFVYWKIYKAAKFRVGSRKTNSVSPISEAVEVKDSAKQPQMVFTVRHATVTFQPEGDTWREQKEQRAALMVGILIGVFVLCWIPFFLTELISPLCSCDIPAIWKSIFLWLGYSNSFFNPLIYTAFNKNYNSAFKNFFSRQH
Source text: as §1

In assay [6] the target is 5-hydroxytryptamine receptor 6 (Homo sapiens, UniProt P50406).
Source text: as §1

Assay [7] deals with T2, Alpha-1A adrenergic receptor (Homo sapiens, UniProt P35348).
T2 sequence (P35348 whole entry): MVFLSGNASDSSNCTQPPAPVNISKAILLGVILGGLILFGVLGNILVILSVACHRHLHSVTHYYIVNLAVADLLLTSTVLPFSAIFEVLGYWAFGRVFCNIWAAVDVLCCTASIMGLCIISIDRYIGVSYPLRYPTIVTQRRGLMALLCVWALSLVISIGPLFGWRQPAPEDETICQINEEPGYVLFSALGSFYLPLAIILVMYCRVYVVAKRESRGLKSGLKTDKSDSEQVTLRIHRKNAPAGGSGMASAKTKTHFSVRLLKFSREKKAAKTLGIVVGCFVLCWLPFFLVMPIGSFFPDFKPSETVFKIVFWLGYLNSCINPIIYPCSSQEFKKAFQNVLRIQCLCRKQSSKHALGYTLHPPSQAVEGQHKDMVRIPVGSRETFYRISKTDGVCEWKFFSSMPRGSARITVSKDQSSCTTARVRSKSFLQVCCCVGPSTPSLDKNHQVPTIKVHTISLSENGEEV
Source text: as §1

The target of assay [8] is T3, Alpha-2A adrenergic receptor (Homo sapiens, UniProt P08913).
T3 sequence (P08913 whole entry): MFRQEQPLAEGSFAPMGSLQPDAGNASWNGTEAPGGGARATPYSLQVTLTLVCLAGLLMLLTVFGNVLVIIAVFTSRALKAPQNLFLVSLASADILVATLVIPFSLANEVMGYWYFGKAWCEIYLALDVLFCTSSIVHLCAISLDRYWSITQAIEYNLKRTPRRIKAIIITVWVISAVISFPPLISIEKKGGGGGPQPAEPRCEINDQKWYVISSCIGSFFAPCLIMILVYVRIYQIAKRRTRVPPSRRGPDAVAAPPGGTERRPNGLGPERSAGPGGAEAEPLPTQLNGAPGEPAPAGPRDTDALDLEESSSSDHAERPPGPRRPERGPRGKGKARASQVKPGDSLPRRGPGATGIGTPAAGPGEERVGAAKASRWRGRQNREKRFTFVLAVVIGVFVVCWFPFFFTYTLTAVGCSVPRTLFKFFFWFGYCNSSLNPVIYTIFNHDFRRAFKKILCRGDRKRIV
Source text: as §1

Assay [9] deals with Beta-1 adrenergic receptor (Homo sapiens, UniProt P08588).
Source text: as §1

Assay [10] deals with D(1B) dopamine receptor (Homo sapiens, UniProt P21918).
D(1B) dopamine receptor, sequence (P21918 whole entry): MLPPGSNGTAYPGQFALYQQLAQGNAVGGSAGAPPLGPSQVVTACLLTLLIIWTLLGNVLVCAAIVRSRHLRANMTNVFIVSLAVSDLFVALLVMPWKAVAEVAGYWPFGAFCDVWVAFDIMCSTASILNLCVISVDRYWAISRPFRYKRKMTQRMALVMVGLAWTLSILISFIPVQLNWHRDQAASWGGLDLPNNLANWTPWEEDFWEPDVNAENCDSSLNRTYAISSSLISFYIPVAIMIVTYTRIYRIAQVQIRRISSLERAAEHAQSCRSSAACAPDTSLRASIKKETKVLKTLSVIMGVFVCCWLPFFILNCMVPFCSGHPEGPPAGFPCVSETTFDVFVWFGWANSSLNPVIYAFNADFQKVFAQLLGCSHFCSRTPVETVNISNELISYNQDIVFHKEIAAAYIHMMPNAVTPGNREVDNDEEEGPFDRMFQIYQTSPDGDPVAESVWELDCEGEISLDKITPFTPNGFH
Source text: as §1

Assay [11] has as its target D(2) dopamine receptor (Homo sapiens, UniProt P14416).
Source text: as §1

For assay [12], the target named is Delta-type opioid receptor (Homo sapiens, UniProt P41143).
Delta-type opioid receptor, sequence (P41143 whole entry): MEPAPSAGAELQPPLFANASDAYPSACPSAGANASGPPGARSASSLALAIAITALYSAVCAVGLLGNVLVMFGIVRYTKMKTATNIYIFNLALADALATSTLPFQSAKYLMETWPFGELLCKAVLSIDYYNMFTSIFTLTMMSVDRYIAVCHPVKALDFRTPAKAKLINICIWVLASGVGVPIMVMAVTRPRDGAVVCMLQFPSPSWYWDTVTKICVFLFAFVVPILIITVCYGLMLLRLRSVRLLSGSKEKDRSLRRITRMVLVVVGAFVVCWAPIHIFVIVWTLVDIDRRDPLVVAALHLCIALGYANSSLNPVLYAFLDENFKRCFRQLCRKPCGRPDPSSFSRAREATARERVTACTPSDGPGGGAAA
Source text: as §1

The target of assay [13] is Glutamate receptor ionotropic, NMDA 2A (Homo sapiens, UniProt Q12879).
Glutamate receptor ionotropic, NMDA 2A, sequence (Q12879 whole entry): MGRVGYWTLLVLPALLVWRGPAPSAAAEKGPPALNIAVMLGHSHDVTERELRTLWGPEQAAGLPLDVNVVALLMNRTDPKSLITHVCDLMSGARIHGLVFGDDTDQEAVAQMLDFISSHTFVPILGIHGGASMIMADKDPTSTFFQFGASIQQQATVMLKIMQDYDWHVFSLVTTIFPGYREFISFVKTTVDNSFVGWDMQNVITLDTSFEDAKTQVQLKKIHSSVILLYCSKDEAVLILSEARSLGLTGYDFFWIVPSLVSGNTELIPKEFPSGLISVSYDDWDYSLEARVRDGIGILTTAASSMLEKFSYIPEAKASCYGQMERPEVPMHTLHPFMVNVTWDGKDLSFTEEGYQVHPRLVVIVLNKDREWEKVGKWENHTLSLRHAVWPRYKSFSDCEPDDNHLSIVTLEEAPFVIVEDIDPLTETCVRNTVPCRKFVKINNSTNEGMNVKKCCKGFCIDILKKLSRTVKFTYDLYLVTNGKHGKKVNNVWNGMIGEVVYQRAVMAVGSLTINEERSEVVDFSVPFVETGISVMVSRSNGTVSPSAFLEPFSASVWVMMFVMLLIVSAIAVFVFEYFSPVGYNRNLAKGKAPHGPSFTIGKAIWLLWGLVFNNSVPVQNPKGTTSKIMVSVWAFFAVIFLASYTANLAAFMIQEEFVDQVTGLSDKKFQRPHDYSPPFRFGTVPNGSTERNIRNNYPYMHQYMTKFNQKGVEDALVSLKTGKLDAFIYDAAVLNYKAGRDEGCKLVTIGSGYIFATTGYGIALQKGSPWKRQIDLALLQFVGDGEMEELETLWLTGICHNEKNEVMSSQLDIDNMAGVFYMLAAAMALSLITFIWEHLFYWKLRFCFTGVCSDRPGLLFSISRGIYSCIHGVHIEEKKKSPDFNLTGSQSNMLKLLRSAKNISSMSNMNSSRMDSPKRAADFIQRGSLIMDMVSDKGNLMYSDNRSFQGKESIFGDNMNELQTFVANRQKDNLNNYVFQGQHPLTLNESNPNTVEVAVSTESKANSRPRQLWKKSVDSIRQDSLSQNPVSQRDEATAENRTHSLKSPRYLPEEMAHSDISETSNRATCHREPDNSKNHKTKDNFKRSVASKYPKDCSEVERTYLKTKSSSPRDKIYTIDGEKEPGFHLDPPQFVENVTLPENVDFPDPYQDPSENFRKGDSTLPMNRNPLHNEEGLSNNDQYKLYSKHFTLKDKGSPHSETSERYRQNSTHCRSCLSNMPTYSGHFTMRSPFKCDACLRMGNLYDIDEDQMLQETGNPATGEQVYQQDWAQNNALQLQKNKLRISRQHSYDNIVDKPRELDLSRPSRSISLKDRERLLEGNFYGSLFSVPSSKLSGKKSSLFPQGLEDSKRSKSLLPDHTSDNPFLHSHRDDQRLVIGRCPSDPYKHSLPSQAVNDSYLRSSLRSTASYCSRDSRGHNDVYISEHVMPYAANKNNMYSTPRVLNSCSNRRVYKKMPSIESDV
Source text: as §1

The target of assay [14] is Histamine H1 receptor (Homo sapiens, UniProt P35367).
Histamine H1 receptor, sequence (P35367 whole entry): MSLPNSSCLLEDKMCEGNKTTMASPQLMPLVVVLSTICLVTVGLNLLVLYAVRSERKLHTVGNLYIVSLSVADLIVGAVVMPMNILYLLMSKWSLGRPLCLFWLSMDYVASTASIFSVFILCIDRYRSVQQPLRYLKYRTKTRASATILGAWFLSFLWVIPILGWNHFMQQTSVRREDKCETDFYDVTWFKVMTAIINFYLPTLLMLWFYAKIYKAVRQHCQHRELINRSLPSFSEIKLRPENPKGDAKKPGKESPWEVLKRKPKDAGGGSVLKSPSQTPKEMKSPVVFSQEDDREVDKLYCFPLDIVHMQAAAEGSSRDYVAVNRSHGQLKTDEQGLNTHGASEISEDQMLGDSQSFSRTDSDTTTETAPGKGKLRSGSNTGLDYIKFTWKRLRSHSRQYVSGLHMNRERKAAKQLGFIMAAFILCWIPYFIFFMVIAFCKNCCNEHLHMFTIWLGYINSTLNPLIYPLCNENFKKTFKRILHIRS
Source text: as §1

For assay [15], the target named is Histamine H2 receptor (Homo sapiens, UniProt P25021).
Histamine H2 receptor, sequence (P25021 whole entry): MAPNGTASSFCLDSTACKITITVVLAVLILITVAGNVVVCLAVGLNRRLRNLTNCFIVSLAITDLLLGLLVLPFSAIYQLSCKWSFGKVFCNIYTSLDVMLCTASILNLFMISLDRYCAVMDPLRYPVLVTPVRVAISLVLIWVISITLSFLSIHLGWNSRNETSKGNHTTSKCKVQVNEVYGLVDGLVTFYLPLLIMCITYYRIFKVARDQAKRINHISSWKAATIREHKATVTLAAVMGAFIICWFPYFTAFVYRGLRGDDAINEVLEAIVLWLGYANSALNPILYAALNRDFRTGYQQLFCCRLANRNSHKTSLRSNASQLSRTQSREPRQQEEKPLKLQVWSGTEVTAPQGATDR
Source text: as §1

Assay [16] deals with Histamine H4 receptor (Homo sapiens, UniProt Q9H3N8).
Source text: as §1

The target of assay [17] is Mu-type opioid receptor (Homo sapiens, UniProt P35372).
Mu-type opioid receptor, sequence (P35372 whole entry): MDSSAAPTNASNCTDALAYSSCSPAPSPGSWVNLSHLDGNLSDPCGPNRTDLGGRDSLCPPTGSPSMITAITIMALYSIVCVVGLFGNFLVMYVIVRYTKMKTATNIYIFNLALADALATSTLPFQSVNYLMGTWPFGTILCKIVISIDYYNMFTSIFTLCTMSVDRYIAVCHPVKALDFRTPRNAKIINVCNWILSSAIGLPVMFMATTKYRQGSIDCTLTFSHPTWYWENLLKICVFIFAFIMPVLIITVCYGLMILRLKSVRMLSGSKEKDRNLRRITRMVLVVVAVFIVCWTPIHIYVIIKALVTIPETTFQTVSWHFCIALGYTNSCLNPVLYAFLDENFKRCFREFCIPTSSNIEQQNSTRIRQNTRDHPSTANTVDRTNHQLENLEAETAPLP
Source text: as §1

Assay [18] concerns the target T4, Muscarinic acetylcholine receptor M5 (Homo sapiens, UniProt P08912).
T4 sequence (P08912 whole entry): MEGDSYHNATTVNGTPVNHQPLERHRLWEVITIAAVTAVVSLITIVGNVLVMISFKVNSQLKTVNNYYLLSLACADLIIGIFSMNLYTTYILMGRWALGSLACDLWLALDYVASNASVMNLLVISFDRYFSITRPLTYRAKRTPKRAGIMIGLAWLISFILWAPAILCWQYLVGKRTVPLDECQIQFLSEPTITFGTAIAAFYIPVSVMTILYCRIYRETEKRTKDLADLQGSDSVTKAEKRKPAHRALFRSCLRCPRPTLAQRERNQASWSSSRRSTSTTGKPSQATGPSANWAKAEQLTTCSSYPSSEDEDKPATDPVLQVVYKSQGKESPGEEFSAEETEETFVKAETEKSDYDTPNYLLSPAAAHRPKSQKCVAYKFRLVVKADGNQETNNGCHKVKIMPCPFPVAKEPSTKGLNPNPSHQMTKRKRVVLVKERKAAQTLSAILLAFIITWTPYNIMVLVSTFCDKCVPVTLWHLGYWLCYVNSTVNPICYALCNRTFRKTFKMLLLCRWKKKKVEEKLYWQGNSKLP
Source text: as §1

For assay [19], the target named is Sodium-dependent dopamine transporter (Homo sapiens, UniProt Q01959).
Sodium-dependent dopamine transporter, sequence (Q01959 whole entry): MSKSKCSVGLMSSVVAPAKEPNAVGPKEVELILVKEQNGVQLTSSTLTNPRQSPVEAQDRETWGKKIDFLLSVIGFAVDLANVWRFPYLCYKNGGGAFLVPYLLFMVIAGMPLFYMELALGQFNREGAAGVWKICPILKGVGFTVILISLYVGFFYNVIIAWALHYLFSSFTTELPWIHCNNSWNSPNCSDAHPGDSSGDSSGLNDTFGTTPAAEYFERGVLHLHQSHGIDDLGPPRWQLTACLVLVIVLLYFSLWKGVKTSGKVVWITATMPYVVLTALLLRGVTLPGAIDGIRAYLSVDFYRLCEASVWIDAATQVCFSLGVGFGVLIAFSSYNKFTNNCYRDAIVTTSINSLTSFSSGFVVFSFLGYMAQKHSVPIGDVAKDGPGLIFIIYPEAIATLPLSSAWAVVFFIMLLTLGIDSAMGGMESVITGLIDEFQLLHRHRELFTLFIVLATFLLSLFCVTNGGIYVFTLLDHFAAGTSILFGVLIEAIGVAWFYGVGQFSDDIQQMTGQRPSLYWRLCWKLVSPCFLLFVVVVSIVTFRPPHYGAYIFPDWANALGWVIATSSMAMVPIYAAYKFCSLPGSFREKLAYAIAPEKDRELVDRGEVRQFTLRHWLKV
Source text: as §1

This is an account of results in BindingDB's records for PubMed 20126400 (University of Oklahoma, 2010).

Each structure is given as a SMILES string. Where only a bound is given, the exact number is not on record here.

5-hydroxytryptamine receptor 2B, sequence (P41595 whole entry): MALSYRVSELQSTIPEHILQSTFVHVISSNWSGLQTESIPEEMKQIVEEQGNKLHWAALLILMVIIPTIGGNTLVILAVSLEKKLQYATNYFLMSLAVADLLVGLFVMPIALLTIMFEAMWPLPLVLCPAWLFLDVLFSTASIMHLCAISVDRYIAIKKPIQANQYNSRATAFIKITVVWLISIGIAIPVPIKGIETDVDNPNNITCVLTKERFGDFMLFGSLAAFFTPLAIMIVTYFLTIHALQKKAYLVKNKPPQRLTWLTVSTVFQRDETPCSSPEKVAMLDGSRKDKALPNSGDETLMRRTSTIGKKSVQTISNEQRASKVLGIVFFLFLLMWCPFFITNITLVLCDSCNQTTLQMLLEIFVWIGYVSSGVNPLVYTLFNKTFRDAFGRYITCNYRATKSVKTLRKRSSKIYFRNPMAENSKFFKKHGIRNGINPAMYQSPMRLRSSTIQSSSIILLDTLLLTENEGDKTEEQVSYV

A word on the Ki: it is a measure of affinity in units of concentration, obtained from inhibition or displacement. Regarding `COc1cc(CC(C)N)c(OC)cc1C` (stereo not drawn) [(+/-)2-(2,5-Dimethoxy-4-methyl-phenyl)-1-methyl-ethylamine], the inhibition constant (Ki) in assay [1] was > 10 µM; in assay [2], 0.209 µM; in [3] it was 0.0117 µM; in assay [4] it was > 10 µM; in assay [5], > 10 µM; in assay [6] it was 8.15 µM. Moreover, the Ki was 3.22 µM in assay [7]; 0.58 µM in assay [8]; > 10 µM in [9]; > 10 µM in assay [10]; > 10 µM in assay [11]; > 10 µM in assay [12]. For the same compound, the inhibition constant Ki in assay [13], in assay [14], in assay [15], in assay [16], in assay [17] and in [18] was > 10 µM in each case. For the same compound, in assay [19], the Ki is > 10 µM.

With `NCCc1c2c(c(Br)c3c1OCC3)OCC2` [2-(8-Bromo-2,3,6,7-tetrahydro-benzo[1,2-b;4,5-b']difuran-4-yl)-ethylamine], the Ki is 0.185 µM in assay [1]; 0.0014 µM in [2]; 0.0009 µM in assay [3]; > 10 µM in [4]; > 10 µM in [5]; 0.15 µM in [6]. The Ki in assay [7] was > 10 µM; in assay [8], 0.145 µM; in [9] it was > 10 µM; in assay [10] it was > 10 µM; in assay [11] it was 6.84 µM; in assay [12], > 10 µM. In addition, the Ki in assay [14] is 5.75 µM; in assay [15] it was > 10 µM; in assay [16] it was > 10 µM; in assay [17] it was > 10 µM; in [18] it was 0.873 µM; in assay [19] it was > 10 µM.

Consider `CC(N)Cc1ccc2c(c1)OCO2` (stereo not given), for which the Ki in assay [1] was > 10 µM; in assay [2] it was > 10 µM; in assay [3], 0.091 µM; in assay [4], > 10 µM; in [5], > 10 µM; in [6], > 10 µM. For the same compound, the Ki in assay [7] was > 10 µM; in [8], 1.66 µM; in [9] it was > 10 µM; in assay [10], > 10 µM; in assay [11], > 10 µM; in assay [15], > 10 µM. The Ki in assay [16], in assay [18] and in [19] was > 10 µM throughout.

Consider `COc1ccc2[nH]cc(CCN(C(C)C)C(C)C)c2c1` [5-meo-dipt], for which the inhibition constant Ki in [2] was 1.72 µM; in [3] it was 0.163 µM; in assay [4], > 10 µM; in assay [5], > 10 µM; in assay [6], > 10 µM; in assay [7], > 10 µM. In addition, the Ki in assay [8], in assay [9], in assay [10], in [11], in assay [12] and in [13] was > 10 µM each time. In addition, the inhibitory constant (Ki) in assay [14], in assay [15], in assay [16], in assay [17], in assay [18] and in [19] was > 10 µM throughout.

Consider `CCSc1cc(OC)c(CC(C)N)cc1OC` (stereo not given) [2-(4-Ethylsulfanyl-2,5-dimethoxy-phenyl)-1-methyl-ethylamine], for which the Ki is 2.04 µM in assay [1]; 1.53 µM in assay [2]; 0.0016 µM in assay [3]; > 10 µM in [4]; > 10 µM in assay [5]; > 10 µM in [7]. The inhibition constant (Ki) in [8] was 5.8 µM; in [9] it was 6.79 µM; in assay [10], > 10 µM; in assay [11], > 10 µM; in assay [12] it was > 10 µM; in assay [13], > 10 µM. Further, the Ki in assay [14] is > 10 µM; in assay [15], > 10 µM; in assay [16], > 10 µM; in assay [17] it was > 10 µM; in assay [18] it was 8.02 µM; in assay [19], > 10 µM.

In the case of `COc1cc(CCN)c(OC)cc1Br`, the inhibitory constant (Ki) was 0.104 µM in assay [1]; 0.0263 µM in assay [2]; 0.0135 µM in assay [3]; > 10 µM in assay [4]; > 10 µM in assay [5]; 0.32 µM in assay [6]. Moreover, the inhibitory constant (Ki) is > 10 µM in assay [7]; 0.309 µM in [8]; > 10 µM in assay [10]; 3.37 µM in [11]; > 10 µM in [12]; > 10 µM in assay [13]. Also, the Ki in assay [14], in assay [15], in [16], in assay [17], in [18] and in assay [19] was > 10 µM throughout.

Turning to `COc1cc(OC)c(OC)cc1CC(C)N` (stereo not drawn) [(+/-)1-Methyl-2-(2,4,5-trimethoxy-phenyl)-ethylamine], the inhibition constant Ki in assay [1] was > 10 µM; in assay [2], > 10 µM; in assay [3], 0.154 µM; in assay [4], > 10 µM; in assay [5], > 10 µM; in [6], > 10 µM. Also, the inhibition constant Ki in assay [7] is > 10 µM; in assay [8] it was > 10 µM; in assay [9], > 10 µM; in [10], > 10 µM; in assay [11] it was > 10 µM; in assay [14] it was 1.41 µM. Also, the Ki in [15], in assay [16], in assay [18] and in [19] was > 10 µM throughout.

Consider `COc1cc(CCN)cc(OC)c1OC` [3,4,5-trimethoxyphenylethylamine], for which the Ki in assay [1], in [2], in assay [4], in [5], in [6] and in assay [7] was > 10 µM throughout. Further, the Ki in assay [8] was 8.93 µM; in [9] it was > 10 µM; in [10] it was > 10 µM; in assay [11], > 10 µM; in [12] it was > 10 µM; in [13] it was > 10 µM. In addition, the Ki in [14], in assay [15], in assay [16], in [17], in assay [18] and in [19] was > 10 µM in each case.
